Key:
stachydrine demethylase [1] = molecular target: T1, stachydrine demethylase (Sinorhizobium meliloti, UniProt Q92ZP9); conditions: 2.3 A; pH 7 HEPES; 25 mM hexaamine CoCl2
T1 construct: gene stc2

lysozyme = molecular target: T2, lysozyme (Gallus gallus, UniProt P00698); experiment: X-ray structure of co-crystal (fragment screen); type: binding; conditions: pH 4.6 acetate, 4% NaCl
T2 construct: gene LYZ

trypsin = molecular target: T3, trypsin (Bos taurus, UniProt P00760); experiment: X-ray structure of co-crystal (fragment screen); type: binding; conditions: pH 7 HEPES, 10 mM CaCl2
T3 construct: gene PRSS1
T3 sequence (P00760 24-246): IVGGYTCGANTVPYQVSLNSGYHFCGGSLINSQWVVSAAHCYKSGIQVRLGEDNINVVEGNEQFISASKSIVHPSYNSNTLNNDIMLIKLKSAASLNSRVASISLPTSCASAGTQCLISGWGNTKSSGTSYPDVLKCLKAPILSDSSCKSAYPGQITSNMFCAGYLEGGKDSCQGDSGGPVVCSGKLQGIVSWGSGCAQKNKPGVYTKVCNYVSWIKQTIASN

stachydrine demethylase [2] = molecular target: T1, stachydrine demethylase; experiment: X-ray structure of co-crystal; demethylated product seen; type: binding; conditions: 2.3 A; pH 7 HEPES; 25 mM hexaamine CoCl2; N-methyl group cleaved on X-ray exposure, only L-proline in the density

O=C(O)[C@@H]1CCCN1 [L-proline]
X-ray structure of co-crystal (stachydrine demethylase [1]): When L-proline was co-crystallized with stachydrine demethylase, the L-proline was observed in the electron density

CC(=O)N[C@H]1C(O)O[C@H](CO)[C@@H](O)[C@@H]1O (stereo partly drawn) [N-acetylglucosamine]
X-ray structure of co-crystal (fragment screen) (lysozyme): The known N-acetylglucosamine ligand was easily identified in the electron density

c1c[nH]cn1 [imidazole]
X-ray structure of co-crystal (fragment screen) (trypsin; 10 mg/ml benzamidine present, allosteric site distant from the active site): imidazole (a previously unreported allosteric binding mode that is distant from the active site; PDB entry 4ncy)

N=C(N)c1ccccc1 [benzamidine]
X-ray structure of co-crystal (fragment screen) (trypsin; known control): the known benzamidine ligand in the best diffracting no-hit screen | X-ray structure of co-crystal (fragment screen) (lysozyme): Benzamidine was also observed to bind to lysozyme, a previously unreported result (PDB entry 4n8z)

CN1CCC[C@H]1C(=O)O [N-methylproline]
X-ray structure of co-crystal; demethylated product seen (stachydrine demethylase [2]): exposure to X-rays quickly induces enzymatic cleavage of the N-methyl group, leaving behind L-proline

From article PMC4014116, “Hitting the target: fragment screening with acoustic in situ co-crystallization of proteins plus fragment libraries on pin-mounted data-collection micromeshes” (Acta Crystallographica Section D: Biological Crystallography, 2014)
